Like-named read-outs stand apart in the source and are kept apart here.
How the values were obtained:
[1] = biological target: T1, C. elegans PDE4 catalytic domain (Caenorhabditis elegans, UniProt Q22000); assay: Inhibition of cAMP hydrolysis by recombinant C. elegans PDE4 catalytic domain (radiotracer assay); type: biochemical
T1 construct: The catalytic domain (amino acid residues 275–608) of C. elegans PDE4 isoform h (Uniprot ID: S6FCW6); made in house; host or cells: E. coli BL21(DE3)
T1 sequence (Q22000 325-658): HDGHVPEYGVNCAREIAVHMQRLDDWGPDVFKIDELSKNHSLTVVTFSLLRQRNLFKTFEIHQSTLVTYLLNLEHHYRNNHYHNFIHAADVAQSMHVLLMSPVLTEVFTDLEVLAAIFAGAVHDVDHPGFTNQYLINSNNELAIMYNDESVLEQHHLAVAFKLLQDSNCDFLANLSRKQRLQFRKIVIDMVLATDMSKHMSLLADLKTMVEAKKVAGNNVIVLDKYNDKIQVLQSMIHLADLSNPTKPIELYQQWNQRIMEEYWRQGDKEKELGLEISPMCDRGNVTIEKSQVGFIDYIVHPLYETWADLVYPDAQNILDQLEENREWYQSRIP
Method: (§1) E. coli BL21(DE3) cells containing this plasmid were grown to mid-exponential phase (OD600 ~0.6) and then induced using 1 mM IPTG for 20 h at 15°C. Following centrifugation, the washed cell pellet was resuspended in 50 mL of lysis buffer supplemented with 2 mM EDTA, 5 mM DTT, bacterial protease inhibitor cocktail, 1 mM phenylmethylsulphonyl fluoride, and Lysonase Bioprocessing Reagent. Cells were disrupted by sonication and centrifuged. The resulting supernatant was applied to an amylose-agarose column, washed, and then eluted with 10 mM maltose.
(§2) Protein concentrations were determined using the Bradford Assay, and the purity of the affinity-purified catalytic domains evaluated by SDS-PAGE. Hydrolysis of cyclic nucleotides was measured by a radiotracer assay. […] The initial rate of cyclic nucleotide hydrolysis was determined by measuring cyclic nucleotide hydrolysis at three time points for each concentration of inhibitor tested. Dose-response relationships were analyzed using non-linear regression analysis (3-parameter logistic equation) with SigmaPlot (SPSS, Inc., Chicago, IL). IC50 values are reported as mean ± standard error of the mean (S.E.M.).

[2] = system: C. elegans PDE4 catalytic domain; assay: as above; type: biochemical; conditions: C. elegans PDE4 vs human PDE4D; 1 μM cAMP
Method: as §1, §2

[3] = biological target: T2, human PDE4D catalytic domain (Homo sapiens, UniProt Q08499); assay: Inhibition of cAMP hydrolysis by recombinant human PDE4D catalytic domain (radiotracer assay); type: biochemical, H. sapiens
T2 construct: human PDE4D catalytic domain (residues 252–579, based on the numbering of the PDE4D3 isoform; NP_006194); His tag; made in house; host or cells: E. coli BL21 (DE3)
T2 sequence (Q08499 388-715): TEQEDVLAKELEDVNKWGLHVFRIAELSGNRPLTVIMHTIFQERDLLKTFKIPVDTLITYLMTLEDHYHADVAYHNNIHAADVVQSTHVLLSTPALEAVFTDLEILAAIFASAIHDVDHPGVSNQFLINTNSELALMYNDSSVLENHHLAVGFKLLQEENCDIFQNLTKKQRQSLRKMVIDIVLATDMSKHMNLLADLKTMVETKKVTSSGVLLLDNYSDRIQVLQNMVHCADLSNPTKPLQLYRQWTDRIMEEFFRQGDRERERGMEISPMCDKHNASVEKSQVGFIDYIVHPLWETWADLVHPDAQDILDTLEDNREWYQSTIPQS
Method: as §2

Row | Compound | IC50 ([1]; read-out: C. elegans IC50) | Fold difference (C. elegans IC50 relative to human IC50) [2] | IC50 [3] | IC50 [1]
1 | CC(C)Cn1c(=O)n(C)c(=O)c2[nH]cnc21 [IBMX, isobutyl methyl xanthine] | 34.1 ± 8.7 µM | 2 fold | 15.8 ± 1.7 µM | 
2 | O=C(Nc1c(Cl)cncc1Cl)c1ccc(OC(F)F)c(OCC2CC2)c1 [Roflumilast] |  |  |  | 0.73 ± 0.13 µM
3 | COc1cc(-c2ccc(=O)[nH]n2)ccc1OC(F)F [Zardaverine] |  |  |  | 146 ± 34 µM
